# Measurements published in patent US9409975B2, “Antibody binding microbial heparin binding motif to retard or prevent microbial biofilm formation on implanted medical devices” (priority 2012, dated 2016).
# “Also recorded” adds a separate entry of the source.
# Assays:
# [1] = system: Candida albicans BWP17 wt; assay: Filipin and calcofluor white staining microscopy with or without heparin; format: cell-based; conditions: 100 units/ml heparin, heparin-treated vs untreated organisms
# Experimental: Heparin effect on Candida albicans growth and morphology was determined. A single colony of BWP17 wt was inoculated into 3 ml YPD medium and incubated overnight at 30° C. with shaking at 225 rpm. Overnight cultures were diluted to an OD600 of 0.1 in 5 ml of YPD (yeast) or RPMI-HEPES (hyphae) in a 50 ml conical polypropylene tube and incubated in the presence or absence of 100 units/ml preservative-free pharmaceutical heparin at 30° C. for six hours. Cells (1 ml) were fixed with an equal volume of 4% formaldehyde in FACS buffer at 4° C. for one hour, then pelleted (7,000 rpm for 3 minutes) and washed with PBS. After reconstitution in 0.5 ml PBS, filipin (50 mg/ml stock solution in DMSO) was added to a final concentration of 100 μg/ml and incubated with cells at room temperature for five minutes. Cells were pelleted, washed with PBS and mounted on a slide using Fluoromount G. For calcofluor white staining, after six hours incubation, 1 μl of 1 mg/ml stock solution of calcofluor white in 0.1 N NaOH was added to 100 μl cells to a final calcofluor white concentration of 10 μg/ml.
# Microscopy was performed by imaging filipin, PKH26, DAPI, and heparin-Alexa Fluor 488 on a Nikon Ti-E inverted microscope with a 100×CFI APO oil NA 1.49 objective. Filipin was excited with a Prior Lumen 200 metal halide light source set at 10% light output. […]
# [2] = system: Candida albicans BWP17 wt planktonic growth; assay: Growth curves and doubling times in presence or absence of soluble heparin; format: cell-based; conditions: 100 units/ml heparin
# Experimental: For growth curves in the presence or absence of soluble heparin, a single colony of BWP17 wt was inoculated into 3 ml YPD medium and incubated overnight at 30° C. with shaking at 225 rpm. Overnight cultures were diluted to an OD600 of 0.1 in 5 ml of YPD, RPMI-MOPS, RPMI-HEPES or CSM in a 50 ml conical polypropylene tube. Preservative-free pharmaceutical heparin (1000 units/ml) was added to yield a final concentration of 100 units/ml in the heparin-treated samples. Cultures were grown at 30° C. with shaking and OD600 measured periodically. Doubling times (td) were calculated based on the equation td=ln 2/μ (μ=specific growth rate (48). One hundred units/ml heparin, the concentration recommended to prevent clotting of central venous catheters (20), had no effect on doubling times of planktonic yeast cells grown in YPD, RPMI-HEPES, RPMI-MOPS or CSM, as shown in FIGS. 2A and 2B.
# A single copy of Int1, including 1450 bp upstream and 548 bp downstream from the Int1 open reading frame (www.candidagenome.org, Assembly 21), was integrated into the hisG locus of the int1−/− strain VBIDM2 (54) to produce the reconstituted strain KO509. Briefly, a copy of Int1 was generated by PCR, using primers 1 and 2 with BWP17 wt DNA as template and cloned into the SacI/MluI sites of pGEMHIS (51) to create pKO509. pKO509 was digested with SwaI and transformed into VBIDM2 to create the reconstituted strain KO509. PCR-mediated overlap extension mutagenesis (55) was used to produce copies of Int1 mutated at putative heparin binding domains. Briefly, primer pairs 1+3 and 2+4 (or 1+5 and 2+6) were used to produce two overlapping fragments of INT1 in which putative heparin binding domains were mutated (FKKRFFKL (SEQ ID NO: 2)→FKAAFFKL (SEQ ID NO: 53) or KQKKHQ (SEQ ID NO: 64)→KQAAHQ (SEQ ID NO: 63)), and a full length mutated sequence generated in a third […] using primers 1+2 with the fragments as template. […] Percent binding of each mutant to heparin in the ELISA assay was compared to the wild type according to the formula [Absorbance595 mutant]/[Absorbance595 wild type]×100.
substance,measurement,setting,value
heparin,integrity of membrane sterols (filipin) and location of septin rings (calcofluor white),[1],identical
same,growth curves in presence or absence of soluble heparin,[2],identical
same,"doubling times of wild type, Δint1 mutant, INT1 reintegrant and Motif 1, Motif 4, Motifs 1 and 4 reintegrants with and without heparin","[2]; 30° C., RPMI-HEPES",no difference
same,effect on doubling times of planktonic yeast cells,"[2]; 30° C., YPD, RPMI-HEPES, RPMI-MOPS or CSM",no effect; also recorded: identical
